Source: EP3815699A1, “NEW MEANS AND METHODS FOR THERAPY AND DIAGNOSIS OF […]” (Technische Universität München, priority 2019, dated 2021)
Like-named read-outs stand apart in the source and are kept apart here.

Key:
[1] = tested on: HAdV-C5 delta E3 virus, encoding a CMV promoter driven eGFP expression cassette; test: GFP fluorescence of replication competent GFP-expressing virus in H1299 cells (Fig. 2B); type: cell-based; settings: for IC50: read-out: IC50 (HAdV infection, GFP)
Protocol: (§1) • Figure 1: ATO efficiently reduces HAdV infectivity (cf. Example 1). H1299 cells were infected with HAdV-C5 wt at a multiplicity of 5 FFU/cell, treated with the depicted concentrations of ATO at 2 h.p.i., fixed 48 h.p.i. with 4 % PFA and double labeled with mAb B6-8 (α-E2A) and pAb L133 (α-Capsid). Primary antibodies were detected using Alexa488 (E2A, green) and Alexa568 (Capsid, red) conjugated secondary antibodies. (A) The number of E2A and Capsid expressing cells, respectively, was counted in n=40 overview pictures (not shown), normalized to untreated, infected cells, and represented in bar charts. Bar charts represent average values and standard deviations based on four independent experiments. (B) H1299 cells were infected with HAdV-C5 at a multiplicity of 20 FFU/cell, and treated with the depicted concentrations of ATO at 2 h.p.i.. Viral particles were harvested 48 h.p.i. and virus yield was determined by quantitative E2A immunofluorescence staining in 293 cells. Bar charts represent average values and standard deviations based on three independent experiments. Statistically significant differences were determined using a two-sided Welch's t-test. *: P ≤ 0.05, **: P ≤ 0.01, ***: P ≤ 0.001, ****: P ≤ 0.0001. • Figure 2: ATO induces a dose dependent reduction of HAdV infectivity with minor effects on cell viability (cf. Example 2). (A) H1299 cells were infected with HAdV-C5 wt at a multiplicity of 20 FFU/cell and treated with the depicted concentrations of ATO at 2 h.p.i.. 24 or 48 h.p.i., cell viability was assessed using the Promega CellTiter-Blue Cell Viability Assay system, prior to fixation with 4 % PFA and cells were double labeled with mAb B6-8 (α-E2A) and pAb L133 (α-Capsid). Primary antibodies were detected using Alexa488 (E2A, green) and Alexa647 (Capsid, red) conjugated secondary antibodies. Fluorescence intensity was measured using a Tecan Infinite 200M plate reader using an excitation and emission wavelength of 488 and 520nm for Alexa488 and 640 and 670nm for Alexa647 respectively. Fluorescence intensity was normalized to untreated, infected cells at 48h p.i.. xy charts represent average values and standard deviations based on three independent experiments measured in triplicates. (B) H1299 cells were infected with an HAdV-C5 delta E3 virus, encoding a CMV promoter driven eGFP expression cassette, at a multiplicity of 20FFU/cell and treated with the depicted concentrations of ATO at 2h p.i.; 24 or 48 h p.i. cell viability was assessed using the Promega CellTiter-Blue Cell Viability Assay system, and GFP fluorescence intensity was measured using a Tecan Infinite 200M plate reader using an excitation and emission wavelength of 488 and 520nm. Fluorescence intensity was normalized to untreated, infected cells at 48h p.i.; xy charts represent average values and standard deviations based on three independent experiments measured in triplicates. (C) H1299 cells were infected with an eGFP expressing HAdV-C5 based first generation adenoviral vector at a multiplicity of 20 FFU/cell and treated with the depicted concentrations of ATO at 2h p.i.; 24 or 48h p.i., cell viability was assessed using the Promega CellTiter-Blue Cell Viability Assay system, and GFP fluorescence intensity was measured using a Tecan Infinite 200M plate reader using an excitation and emission wavelength of 488 and 520nm. […]

[2] = tested on: eGFP expressing HAdV-C5 based first generation adenoviral vector; test: GFP fluorescence of non-replicating adenoviral vector in H1299 cells (Fig. 2C); type: cell-based; settings: for GFP expression compared to the untreated control: 8µM ATO; for IC50: read-out: IC50 (GFP expression)
Protocol: as §1, with “(A) H1299 cells were infected with HAdV-C5 wt at a multiplicity of 20 FFU/cell and treated with the depicted concentrations of ATO at 2 h.p.i..” left out, “triplicates.” for “triplicates. (C) H1299 cells were infected with an eGFP expressing HAdV-C5 based first generation adenoviral vector at a multiplicity of 20 FFU/cell and treated with the depicted concentrations of ATO at 2h p.i.; 24 or 48h p.i., cell viability was assessed using the Promega CellTiter-Blue Cell Viability Assay system, and GFP fluorescence intensity was measured using a Tecan Infinite 200M plate reader using an excitation and emission wavelength of 488 and 520nm.”

H1299 cells = type: cell-based, Human; settings: lower panel
Protocol: • Figure 1: ATO efficiently reduces HAdV infectivity (cf. Example 1). H1299 cells were infected with HAdV-C5 wt at a multiplicity of 5 FFU/cell, treated with the depicted concentrations of ATO at 2 h.p.i., fixed 48 h.p.i. with 4 % PFA and double labeled with mAb B6-8 (α-E2A) and pAb L133 (α-Capsid). Primary antibodies were detected using Alexa488 (E2A, green) and Alexa568 (Capsid, red) conjugated secondary antibodies. (A) The number of E2A and Capsid expressing cells, respectively, was counted in n=40 overview pictures (not shown), normalized to untreated, infected cells, and represented in bar charts. Bar charts represent average values and standard deviations based on four independent experiments. (B) H1299 cells were infected with HAdV-C5 at a multiplicity of 20 FFU/cell, and treated with the depicted concentrations of ATO at 2 h.p.i.. Viral particles were harvested 48 h.p.i. and virus yield was determined by quantitative E2A immunofluorescence staining in 293 cells. Bar charts represent average values and standard deviations based on three independent experiments. Statistically significant differences were determined using a two-sided Welch's t-test. *: P ≤ 0.05, **: P ≤ 0.01, ***: P ≤ 0.001, ****: P ≤ 0.0001. • Figure 2: ATO induces a dose dependent reduction of HAdV infectivity with minor effects on cell viability (cf. Example 2). […] 24 or 48 h.p.i., cell viability was assessed using the Promega CellTiter-Blue Cell Viability Assay system, prior to fixation with 4 % PFA and cells were double labeled with mAb B6-8 (α-E2A) and pAb L133 (α-Capsid). Primary antibodies were detected using Alexa488 (E2A, green) and Alexa647 (Capsid, red) conjugated secondary antibodies. Fluorescence intensity was measured using a Tecan Infinite 200M plate reader using an excitation and emission wavelength of 488 and 520nm for Alexa488 and 640 and 670nm for Alexa647 respectively. Fluorescence intensity was normalized to untreated, infected cells at 48h p.i.. xy charts represent average values and standard deviations based on three independent experiments measured in triplicates. […]

[3] = tested on: HAdV-C5 delta E3 virus, encoding a CMV promoter driven eGFP expression cassette; test: IncuCyte live-cell imaging, real-time kinetics of GFP expression (Fig. 2D); type: cell-based; settings: 60h p.i., A549 cells
HAdV-C5 wt [4] = test: Quantitative RT-PCR of viral E1A and Hexon mRNA (Fig. 3B); type: cell-based; settings: 2µM ATO, 48h
HAdV-C5 wt [5] = test: Western blot of viral protein expression (Fig. 3C); type: cell-based; settings: 1 and 2µM ATO
HAdV-C5 wt [6] = test: Native agarose gel electrophoresis capsid formation assay (Fig. 3D); type: cell-based
PML-NBs = test: Immunofluorescence count of PML-NBs per cell in uninfected H1299 cells (Fig. 4A); type: cell-based, Human; settings: non-infected cells
HAdV-C5 wt [7] = test: Immunofluorescence count of HAdV replication centers marked by E2A (Fig. 4B); type: cell-based; settings: HAdV infected cells

PML-NBs, sequence (P29590 1-418 limits assumed): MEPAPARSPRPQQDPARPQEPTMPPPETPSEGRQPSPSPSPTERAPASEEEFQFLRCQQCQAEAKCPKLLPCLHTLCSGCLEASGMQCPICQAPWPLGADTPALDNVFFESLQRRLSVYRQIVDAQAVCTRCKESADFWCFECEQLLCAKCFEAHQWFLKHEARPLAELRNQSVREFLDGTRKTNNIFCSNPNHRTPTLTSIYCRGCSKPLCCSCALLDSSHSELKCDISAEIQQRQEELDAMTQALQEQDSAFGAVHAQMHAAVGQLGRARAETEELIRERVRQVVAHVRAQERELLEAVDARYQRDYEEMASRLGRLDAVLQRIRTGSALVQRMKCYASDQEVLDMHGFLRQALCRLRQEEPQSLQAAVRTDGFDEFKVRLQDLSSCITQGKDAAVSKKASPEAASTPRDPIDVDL

Question: arsenic trioxide [ATO] was tested. Which “inhibition of adenoviral infection” value ([1]; 4µM ATO, 48h p.i.) did it give?
Answer: more than 75%

Question: And the IC50 ([1]; 24h p.i.)?
Answer: 1.61 µM

Question: What about the IC50 ([1]; 48 h p.i.) of the same substance?
Answer: 1.18 µM

Question: What about the “GFP expression compared to the untreated control” value ([2]; 24h p.i.) of the same substance?
Answer: Less than 50%

Question: And the “GFP expression compared to the untreated control” value ([2]; 48h p.i.)?
Answer: Less than 50%

Question: What about the IC50 ([2]; 24h p.i.) of the same substance?
Answer: 6.49 µM

Question: And the IC50 ([2]; 48h p.i.)?
Answer: 10.2 µM

Question: And the “cellular cytotoxicity of ATO” value (H1299 cells; H1299 infected with HAdV-C5 wt, ATO 0-10 µM, Fig. 2A)?
Answer: no clear effect

Question: And the “cellular cytotoxicity of ATO” value (H1299 cells; H1299 infected with non-replicating eGFP vector, ATO 0-8µM, Fig. 2C)?
Answer: no clear effect

Question: And the “cellular cytotoxicity of ATO” value (H1299 cells; H1299 infected with replication competent HAdV-GFP, Fig. 2B)?
Answer: no clear effect

Question: And the “reduction of GFP expression / viral load over time” value [3]?
Answer: four-fold

Question: And the “inhibition of Hexon viral mRNA expression” value (HAdV-C5 wt [4])?
Answer: 60%

Question: And the E1B-55K viral protein (HAdV-C5 wt [5])?
Answer: decrease

Question: And the E4orf6 viral protein (HAdV-C5 wt [5])?
Answer: decrease

Question: And the “expression of the early viral protein E2A” value (HAdV-C5 wt [5])?
Answer: decrease

Question: And the “late capsid and capsid associated proteins” value (HAdV-C5 wt [5])?
Answer: decrease

Question: What about the “viral early and late protein synthesis” value (HAdV-C5 wt [5]; 48 h.p.i.) of the same substance?
Answer: significantly impaired

Question: What about the “signal obtained after capsid staining (native gel assay)” value (HAdV-C5 wt [6]) of the same substance?
Answer: significantly reduced

Question: What about the capsid protein expression (HAdV-C5 wt [6]; denatured input lysates, right panel) of the same substance?
Answer: reduced

Question: And the “number of PML-NBs” value (PML-NBs)?
Answer: significantly decreases

Question: What about the “RC in number (replication centers)” value (HAdV-C5 wt [7]) of the same substance?
Answer: significant reduction
